Assay results as given in patent publication US20250171459A1, “2-METHYL-4',5'-DIHYDROSPIRO[PIPERIDINE-4,7'-THIENO[2,3-C]PYRAN] DERIVATIVES AS INHIBITORS OF APOL1 AND METHODS OF USING SAME” (Vertex Pharmaceuticals Incorporated, priority 2022, published 2025).

Molecular target: T1, APOL1 (Homo sapiens, UniProt O14791)
T1 sequence (O14791 1-398 S342G/I384M): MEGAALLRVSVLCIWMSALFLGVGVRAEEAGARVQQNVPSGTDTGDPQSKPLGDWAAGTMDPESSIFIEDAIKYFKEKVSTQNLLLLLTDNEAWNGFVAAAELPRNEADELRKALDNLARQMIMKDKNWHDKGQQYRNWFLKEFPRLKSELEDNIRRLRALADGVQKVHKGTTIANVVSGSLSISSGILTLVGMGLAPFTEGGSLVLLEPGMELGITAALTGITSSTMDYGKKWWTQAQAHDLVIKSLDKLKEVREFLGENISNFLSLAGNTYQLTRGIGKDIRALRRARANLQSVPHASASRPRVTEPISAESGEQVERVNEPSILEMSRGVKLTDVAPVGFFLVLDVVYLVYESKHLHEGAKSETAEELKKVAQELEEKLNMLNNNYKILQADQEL
Test: MultiTox-Fluor Multiplex Cytotoxicity Assay in tet-inducible APOL1 T-REx-HEK293 cells (cell rescue, ratio of dead to live cells)
Format: cell-based
Settings: tet-inducible transgenic APOL1 T-REx-HEK293 cell lines, 50 ng/mL tet, 24 hours; read-out: IP50 (i.e., IC50 for cell proliferation)
In short: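 T-REx-HEK293 cells with tet-inducible APOL1 were treated with compound (10 μM top, 10-point 3-fold dilution, duplicate) plus 50 ng/mL tetracycline for 24 h at 37° C, in DMEM with 2% tet-free FBS. MultiTox-Fluor protease signals gave a dead/live ratio, normalized to no tet (100% viability) and tet alone (0%).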

Structure (SMILES) | IC50 [nM]
CCc1cc2c(s1)CCO[C@@]21CCN(C[C@H]2C[C@@H](NC(=O)c3cc(CO)n[nH]3)C2)[C@@H](C)C1 [Compound 363] | < 100
CCc1cc2c(s1)CCO[C@@]21CCN(C[C@H]2C[C@@H](NC(=O)CNS(C)(=O)=O)C2)[C@@H](C)C1 [Compound 364] | 100 to 500
CCc1cc2c(s1)CCO[C@@]21CCN(C[C@H]2C[C@@H](NC(=O)C(O)CO)C2)[C@@H](C)C1 (stereo partly shown) [Compound 365] | 100 to 500
CCc1cc2c(s1)CCO[C@@]21CCN(C[C@H]2C[C@@H](NC(=O)CCN3CCCC3=O)C2)[C@@H](C)C1 [Compound 366] | 100 to 500
CCc1cc2c(s1)CCO[C@@]21CCN(C[C@H]2C[C@@H](NC(=O)C3CC3C(=O)N(C)C)C2)[C@@H](C)C1 (stereo partly shown) [Compound 367] | 100 to 500
CCc1cc2c(s1)CCO[C@@]21CCN(C[C@H]2C[C@@H](NC(=O)[C@H]3CCCO3)C2)[C@@H](C)C1 [Compound 368] | 100 to 500
CCc1cc2c(s1)CCO[C@@]21CCN(C[C@H]2C[C@@H](NC(=O)[C@@H]3CCCO3)C2)[C@@H](C)C1 [Compound 369] | 100 to 500
CCc1cc2c(s1)CCO[C@@]21CCN(C[C@H]2C[C@@H](NC(=O)C(C)(O)C(F)(F)F)C2)[C@@H](C)C1 (stereo partly shown) [Compound 370] | 100 to 500
CCCOC(=O)N[C@H]1C[C@@H](CN2CC[C@]3(C[C@@H]2C)OCCc2sc(CC)cc23)C1 [Compound 371] | < 100
CCc1cc2c(s1)CCO[C@@]21CCN(C[C@H]2C[C@@H](NC(=O)Oc3ccccc3F)C2)[C@@H](C)C1 [Compound 372] | 500 to 1000
CCc1cc2c(s1)CCO[C@@]21CCN(C[C@H]2C[C@@H](NC(=O)OCC(C)C)C2)[C@@H](C)C1 [Compound 373] | 100 to 500
CCc1cc2c(s1)CCO[C@@]21CCN(C[C@H]2C[C@@H](NC(=O)OCCOC)C2)[C@@H](C)C1 [Compound 374] | 100 to 500
CCOC(=O)N[C@H]1C[C@@H](CN2CC[C@]3(C[C@@H]2C)OCCc2sc(CC)cc23)C1 [Compound 375] | < 100
CCc1cc2c(s1)CCO[C@@]21CCN(C[C@H]2C[C@@H](NC(=O)OC(C)C)C2)[C@@H](C)C1 [Compound 376] | < 100
CCc1cc2c(s1)CCO[C@@]21CCN(C[C@H]2C[C@@H](NC(=O)Oc3ccc(F)cc3)C2)[C@@H](C)C1 [Compound 377] | < 100
CCc1cc2c(s1)CCO[C@@]21CCN(C[C@H]2C[C@@H](NC(=O)OCC3CC3)C2)[C@@H](C)C1 [Compound 378] | 100 to 500
CCc1cc2c(s1)CCO[C@@]21CCN(C[C@H]2C[C@@H](NC(=O)Oc3ccc(OC)cc3)C2)[C@@H](C)C1 [Compound 379] | < 100
CCc1cc2c(s1)CCO[C@@]21CCN(C[C@H]2C[C@@H](NC(=O)OCc3ccccc3)C2)[C@@H](C)C1 [Compound 380] | 100 to 500
CCc1cc2c(s1)CCO[C@@]21CCN(C[C@H]2C[C@@H](NC(=O)OCc3ccccc3Cl)C2)[C@@H](C)C1 [Compound 381] | 100 to 500
CCc1cc2c(s1)CCO[C@@]21CCN(C[C@H]2C[C@@H](NC(=O)Oc3ccc(Cl)cc3)C2)[C@@H](C)C1 [Compound 382] | < 100
CCc1cc2c(s1)CCO[C@@]21CCN(C[C@H]2C[C@@H](NC(=O)OCC3CCCCC3)C2)[C@@H](C)C1 [Compound 383] | 100 to 500
CCc1cc2c(s1)CCO[C@@]21CCN(C[C@H]2C[C@@H](NC(C)=O)C2)[C@@H](C)C1 [Compound 384] | 100 to 500
CCc1cc2c(s1)CCO[C@@]21CCN(CC2CC(NC(=O)CCCCCOCCOCCOCCOCCCCCCCl)C2)[C@@H](C)C1 (stereo partly drawn) [Compound 385, 6-[2-[2-[2-(6-chlorohexoxy)ethoxy]ethoxy]ethoxy]-N-[3-[[(2′S,4R)-2-ethyl-2′-methyl-spiro[6,7-dihydrothieno[3,2-c]pyran-4,4′-piperidine]-1′-yl]methyl]cyclobutyl]hexanamide] | 100 to 500
CCc1cc2c(s1)CCO[C@@]21CCN(C[C@H]2C[C@@H](NC(=O)OCCOCCOCCOC(=O)NCCOCCOCCCCCCCl)C2)[C@@H](C)C1 [Compound 386, 2-[2-[2-[[3-[[(2′S,4R)-2-ethyl-2′-methyl-spiro[6,7-dihydrothieno[3,2-c]pyran-4,4′-piperidine]-1′-yl]methyl]cyclobutyl]carbamoyloxy]ethoxy]ethoxy]ethyl N-[2-[2-(6-chlorohexoxy)ethoxy]ethyl]carbamate] | < 100
CCc1cc2c(s1)CCO[C@@]21CCN(C[C@H]2C[C@@H](NC(=O)C(F)(F)F)C2)[C@@H](C)C1 [Compound 387, N-[3-[[(2′S,4R)-2-ethyl-2′-methyl-spiro[6,7-dihydrothieno[3,2-c]pyran-4,4′-piperidine]-1′-yl]methyl]cyclobutyl]-2,2,2-trifluoro-acetamide] | 100 to 500
CCc1cc2c(s1)CCO[C@@]21CCN(C[C@H]2C[C@@H](NS(=O)(=O)CCO)C2)[C@@H](C)C1 [Compound 388, N-[3-[[(2′S,4R)-2-ethyl-2′-methyl-spiro[6,7-dihydrothieno[3,2-c]pyran-4,4′-piperidine]-1′-yl]methyl]cyclobutyl]-2-hydroxy-ethanesulfonamide] | < 100

Structure (SMILES) | IC50 [nM]
CCc1cc2c(s1)CCO[C@@]21CCN(C[C@H]2C[C@@H](NS(=O)(=O)CC#N)C2)[C@@H](C)C1 [Compound 389] | < 100
CCc1cc2c(s1)CCO[C@@]21CCN(C[C@H]2C[C@@H](NS(=O)(=O)C3CC3)C2)[C@@H](C)C1 [Compound 390] | < 100
CCc1cc2c(s1)CCO[C@@]21CCN(C[C@H]2C[C@@H](NS(=O)(=O)c3ccc(C#N)cc3)C2)[C@@H](C)C1 [Compound 391] | < 100
CCc1cc2c(s1)CCO[C@@]21CCN(C[C@H]2C[C@@H](NS(=O)(=O)CC(=O)OC)C2)[C@@H](C)C1 [Compound 392] | 500 to 1000
CCc1cc2c(s1)CCO[C@@]21CCN(C[C@H]2C[C@@H](NS(=O)(=O)Cc3cccc(C)c3)C2)[C@@H](C)C1 [Compound 393] | < 100
CCc1cc2c(s1)CCO[C@@]21CCN(C[C@H]2C[C@@H](NS(=O)(=O)CC)C2)[C@@H](C)C1 [Compound 394] | < 100
CCc1cc2c(s1)CCO[C@@]21CCN(C[C@H]2C[C@@H](NS(=O)(=O)C(C)C)C2)[C@@H](C)C1 [Compound 395] | < 100
CCc1cc2c(s1)CCO[C@@]21CCN(C[C@H]2C[C@@H](NS(=O)(=O)c3cccc(OC)c3)C2)[C@@H](C)C1 [Compound 396] | < 100
CCc1cc2c(s1)CCO[C@@]21CCN(C[C@H]2C[C@@H](NS(=O)(=O)c3ccccc3)C2)[C@@H](C)C1 [Compound 397] | < 100
CCc1cc2c(s1)CCO[C@@]21CCN(C[C@H]2C[C@@H](NS(=O)(=O)Cc3ccccc3)C2)[C@@H](C)C1 [Compound 398] | < 100
CCc1cc2c(s1)CCO[C@@]21CCN(C[C@H]2C[C@@H](NS(=O)(=O)c3ccc(F)cc3)C2)[C@@H](C)C1 [Compound 399] | < 100
CCc1cc2c(s1)CCO[C@@]21CCN(C[C@H]2C[C@@H](NS(=O)(=O)c3cccc(C#N)c3)C2)[C@@H](C)C1 [Compound 400] | < 100
CCc1cc2c(s1)CCO[C@@]21CCN(C[C@H]2C[C@@H](NS(=O)(=O)C3COC3)C2)[C@@H](C)C1 [Compound 401] | < 100
CCc1cc2c(s1)CCO[C@@]21CCN(C[C@H]2C[C@@H](NS(=O)(=O)c3ccc(OC)cc3)C2)[C@@H](C)C1 [Compound 402] | < 100
CCc1ccc(S(=O)(=O)N[C@H]2C[C@@H](CN3CC[C@]4(C[C@@H]3C)OCCc3sc(CC)cc34)C2)s1 [Compound 403] | < 100
CCc1cc2c(s1)CCO[C@@]21CCN(C[C@H]2C[C@@H](NS(=O)(=O)c3ccccc3OC)C2)[C@@H](C)C1 [Compound 404] | < 100
CCc1cc2c(s1)CCO[C@@]21CCN(C[C@H]2C[C@@H](NS(=O)(=O)c3cccs3)C2)[C@@H](C)C1 [Compound 405] | < 100
CCc1cc2c(s1)CCO[C@@]21CCN(C[C@H]2C[C@@H](NS(=O)(=O)c3cccc(C)c3)C2)[C@@H](C)C1 [Compound 406] | < 100
CCc1cc2c(s1)CCO[C@@]21CCN(C[C@H]2C[C@@H](NS(=O)(=O)c3cncc(Cl)c3)C2)[C@@H](C)C1 [Compound 407] | < 100
CCc1cc2c(s1)CCO[C@@]21CCN(C[C@H]2C[C@@H](NS(=O)(=O)c3ccccc3F)C2)[C@@H](C)C1 [Compound 408] | < 100
CCc1cc2c(s1)CCO[C@@]21CCN(C[C@H]2C[C@@H](NS(=O)(=O)c3ccccc3Cl)C2)[C@@H](C)C1 [Compound 409] | < 100
CCc1cc2c(s1)CCO[C@@]21CCN(C[C@H]2C[C@@H](NS(C)(=O)=O)C2)[C@@H](C)C1 [Compound 410] | < 100
CCc1cc2c(s1)CCO[C@@]21CCN(C[C@H]2C[C@@H](NS(=O)(=O)C(F)(F)F)C2)[C@@H](C)C1 [Compound 411] | 100 to 500
CCc1cc2c(s1)CCO[C@@]21CCN(C[C@H]2C[C@@H](NS(=O)(=O)c3cnccc3Cl)C2)[C@@H](C)C1 [Compound 412] | < 100
CCc1cc2c(s1)CCO[C@@]21CCN(C[C@H]2C[C@@H](NS(=O)(=O)c3ccc(C(N)=O)cc3)C2)[C@@H](C)C1 [Compound 413] | < 100
CCc1cc2c(s1)CCO[C@@]21CCN(C[C@H]2C[C@@H](NS(=O)(=O)CCC3NC(=O)NC3=O)C2)[C@@H](C)C1 (stereo partly shown) [Compound 415] | 100 to 500
